Where a SMILES comes first, the peptide text is derived from it. Bridges are numbered along the chain shown (N, C = ends). [ ]: non-standard residue; d: D form. The star is where a group is joined. Phe(4-COOH) = N[C@@H](Cc1ccc(C(=O)O)cc1)C(=O)O; Asp(3,3-Me2) = CC(C)(C(=O)O)[C@H](N)C(=O)O; Bip = N[C@@H](Cc1ccc(-c2ccccc2)cc1)C(=O)O; Phe(3-Me) = Cc1cccc(C[C@H](N)C(=O)O)c1; Val(3-OH) = CC(C)(O)[C@H](N)C(=O)O; Benzoyl(4-F) = O=C(c1ccc(F)cc1)*; 4Pal = N[C@@H](Cc1ccncc1)C(=O)O; Cha = N[C@@H](CC1CCCCC1)C(=O)O; Phg = N[C@H](C(=O)O)c1ccccc1; dNle = CCCC[C@@H](N)C(=O)O; Carboxymethyl = O=C(O)C*; Orn = NCCC[C@H](N)C(=O)O; Dab = NCC[C@H](N)C(=O)O; Dap = NC[C@H](N)C(=O)O
These compounds were tested against T1, human PD-1 / PD-L1-Ig binding on Jurkat cell line over-expressing human PD-1 (Jurkat-PD-1) (Homo sapiens, UniProt Q15116) (assay: Jurkat-PD-1 Cell Binding High-Content Screening Assay (CBA)). Conditions: Jurkat-PD-1 cells, PE-labeled PD-L1-Ig 20 nM final; read-out: Jurkat HPD1_PDL1 IC50.
T1 construct: expressed in transfected cells; host or cells: Jurkat
T1 sequence (Q15116 25-288): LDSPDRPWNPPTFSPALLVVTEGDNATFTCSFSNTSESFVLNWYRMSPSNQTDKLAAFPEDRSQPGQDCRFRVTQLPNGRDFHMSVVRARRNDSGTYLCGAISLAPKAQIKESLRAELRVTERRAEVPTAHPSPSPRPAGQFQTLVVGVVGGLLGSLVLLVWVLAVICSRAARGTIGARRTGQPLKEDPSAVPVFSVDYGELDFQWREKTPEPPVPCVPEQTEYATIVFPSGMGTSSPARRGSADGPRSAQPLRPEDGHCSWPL
Format: cell-based
How it was run: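 Compounds were preincubated with Jurkat-hPD-1 cells in DMEM plus 10% fetal calf serum for 2 h at 37° C. Phycoerythrin-labeled PD-L1-Ig (20 nM final) was then added for 1 hour. Cells were fixed in 4% paraformaldehyde with Hoechst 33342, and bound fluorescence was quantified by high-content imaging.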
Work on `Cc1cccc(C[C@@H]2NC(=O)[C@H](CC(=O)O)NC(=O)[C@H](Cc3ccc(OCC(=O)O)cc3)NC(=O)[C@H](CCCNC(=N)N)NC(=O)CSC[C@@H](C(N)=O)NC(=O)[C@H]([C@@H](C)O)NC(=O)[C@H](C(C)C)NC(=O)[C@H](CC3CCCCC3)NC(=O)[C@H](CCN)NC(=O)[C@@H](CC(C)C)NC(=O)[C@H](CCCNC(=O)c3ccc(F)cc3)NC(=O)[C@H](Cc3ccc(OCC(=O)O)cc3)NC(=O)[C@H](Cc3ccc(-c4ccccc4)cc3)NC(=O)[C@H](Cc3ccc(O)cc3)NC2=O)c1` [Compound 2050] ({CH2CO}-RY(Carboxymethyl)D[Phe(3-Me)]Y[Bip]Y(Carboxymethyl)[Orn](Benzoyl(4-F))[dL][Dab][Cha]VTC-NH2; thioether N-14) yielded an IC50 of 121 nM. Work on `Cc1cccc(C[C@@H]2NC(=O)[C@H](CCN)NC(=O)[C@@H](CC(C)C)NC(=O)[C@H](CCCN)NC(=O)[C@H](CCC(=O)O)NC(=O)[C@H](Cc3ccc(-c4ccccc4)cc3)NC(=O)[C@H](C(C)C)NC(=O)[C@H](Cc3c[nH]c4ccccc34)NC(=O)[C@H](CC(=O)O)NC(=O)[C@H](Cc3ccc(OCC(=O)O)cc3)NC(=O)[C@H](CN)NC(=O)CSC[C@@H](C(=O)N[C@@H](C)C(N)=O)NC(=O)[C@H]([C@@H](C)O)NC(=O)[C@H](C(C)C)NC2=O)c1` [Compound 1470] ({CH2CO}-[Dap]Y(Carboxymethyl)DWV[Bip]E[Orn][dL][Dab][Phe(3-Me)]VTCA-NH2; thioether N-14) yielded an IC50 of 54.6 nM. `Cc1cccc(C[C@@H]2NC(=O)[C@H](CC(=O)O)NC(=O)[C@H](Cc3ccc(OCC(=O)O)cc3)NC(=O)[C@H](CCN)NC(=O)CSC[C@@H](C(=O)N[C@H](C(N)=O)C(C)(C)C(=O)O)NC(=O)[C@H](CO)NC(=O)[C@H](C(C)(C)O)NC(=O)[C@H](CC3CCCCC3)NC(=O)[C@H](CCN)NC(=O)[C@@H](CC(C)C)NC(=O)[C@H](CCCN)NC(=O)[C@H](Cc3ccc(OCC(=O)O)cc3)NC(=O)[C@H](Cc3ccc(-c4ccccc4)cc3)NC(=O)[C@H](Cc3ccc(OCC(=O)O)cc3)NC2=O)c1` [Compound 2071] ({CH2CO}-[Dab]Y(Carboxymethyl)D[Phe(3-Me)]Y(Carboxymethyl)[Bip]Y(Carboxymethyl)[Orn][dL][Dab][Cha][Val(3-OH)]SC[Asp(3,3-Me2)]-NH2; thioether N-14) gave an IC50 of 148 nM. Work on `CC(C)C[C@H]1NC(=O)[C@H](CCCN)NC(=O)[C@H](C(C)C)NC(=O)[C@H](Cc2ccc(-c3ccccc3)cc2)NC(=O)[C@H](c2ccccc2)NC(=O)[C@H](Cc2c[nH]c3ccccc23)NC(=O)[C@H](CC(=O)O)NC(=O)[C@H](Cc2ccc(OCC(=O)O)cc2)NC(=O)[C@H](CN)NC(=O)CSC[C@@H](C(=O)N[C@@H](C)C(N)=O)NC(=O)[C@H]([C@@H](C)O)NC(=O)[C@H](C(C)C)NC(=O)[C@H](CC2CCCCC2)NC(=O)[C@H](CCN)NC1=O` [Compound 1736] ({CH2CO}-[Dap]Y(Carboxymethyl)DW[Phg][Bip]V[Orn][dL][Dab][Cha]VTCA-NH2; thioether N-14) yielded an IC50 of 14 nM. Work on `CCCC[C@@H]1NC(=O)[C@H](Cc2ccc(-c3ccccc3)cc2)NC(=O)[C@H](C(C)C)NC(=O)[C@H](Cc2c[nH]c3ccccc23)NC(=O)[C@H](CC(=O)O)NC(=O)[C@H](Cc2ccc(C(=O)O)cc2)NC(=O)[C@H](Cc2ccncc2)NC(=O)CSC[C@@H](C(=O)N[C@@H](C)C(N)=O)NC(=O)[C@H]([C@@H](C)O)NC(=O)[C@H](C(C)C)NC(=O)[C@H](CC2CCCCC2)NC(=O)[C@H](Cc2cnc[nH]2)NC(=O)[C@@H](CC(C)C)NC(=O)[C@H](CCCN)NC1=O` [Compound 1622] yielded an IC50 of 36 nM. `CC(=O)NCCC[C@@H]1NC(=O)[C@H](C(C)C)NC(=O)[C@H](CC2CCCCC2)NC(=O)[C@H](CCN)NC(=O)[C@@H](CC(C)C)NC(=O)[C@H](CCCN)NC(=O)[C@H](Cc2ccc(OCC(=O)O)cc2)NC(=O)[C@H](Cc2ccc(-c3ccccc3)cc2)NC(=O)[C@H](Cc2ccc(O)cc2)NC(=O)[C@H](Cc2cccc(C)c2)NC(=O)[C@H](CC(=O)O)NC(=O)[C@H](Cc2ccc(OCC(=O)O)cc2)NC(=O)[C@H](CCCNC(=N)N)NC(=O)CSC[C@@H](C(N)=O)NC1=O` [Compound 2054] ({CH2CO}-RY(Carboxymethyl)D[Phe(3-Me)]Y[Bip]Y(Carboxymethyl)[Orn][dL][Dab][Cha]V[Orn](Ac)C-NH2; thioether N-14) gave an IC50 of 12.4 nM. Work on `CC(C)C[C@H]1NC(=O)[C@H](CCCN)NC(=O)[C@H](C(C)C)NC(=O)[C@H](Cc2ccc(-c3ccccc3)cc2)NC(=O)[C@H](C(C)C)NC(=O)[C@H](Cc2c[nH]c3ccccc23)NC(=O)[C@H](CC(=O)O)NC(=O)[C@H](Cc2ccc(OCC(=O)O)cc2)NC(=O)[C@H](Cc2ccc(OCC(=O)O)cc2)NC(=O)CSC[C@@H](C(=O)N[C@@H](C)C(N)=O)NC(=O)[C@H](CCCCN)NC(=O)[C@H](C(C)C)NC(=O)[C@H](CC2CCCCC2)NC(=O)[C@H](CCN)NC1=O` [Compound 1746] ({CH2CO}-Y(Carboxymethyl)Y(Carboxymethyl)DWV[Bip]V[Orn][dL][Dab][Cha]VKCA-NH2; thioether N-14) yielded an IC50 of 8.8 nM. `CC[C@H](C)[C@@H]1NC(=O)[C@H](Cc2ccc(-c3ccccc3)cc2)NC(=O)[C@H](C(C)C)NC(=O)[C@H](Cc2c[nH]c3ccccc23)NC(=O)[C@H](CC(=O)O)NC(=O)[C@H](Cc2ccc(C(=O)O)cc2)NC(=O)[C@H](Cc2ccncc2)NC(=O)CSC[C@@H](C(=O)N[C@@H](C)C(N)=O)NC(=O)[C@H]([C@@H](C)O)NC(=O)[C@H](C(C)C)NC(=O)[C@H](CC(C)C)NC(=O)[C@H](CCN)NC(=O)[C@@H](CC(C)C)NC(=O)[C@H](CCCN)NC1=O` [Compound 1055] ({CH2CO}-[4Pal][Phe(4-COOH)]DWV[Bip]I[Orn][dL][Dab]LVTCA-NH2; thioether N-14) was tested, and the IC50 was 5.8 nM. Work on `CC(C)C[C@H]1NC(=O)[C@H](CCCN)NC(=O)[C@H](C(C)C)NC(=O)[C@H](Cc2ccc(-c3ccccc3)cc2)NC(=O)[C@H](C(C)C)NC(=O)[C@H](Cc2cccc(C(F)(F)F)c2)NC(=O)[C@H](CC(=O)O)NC(=O)[C@H](Cc2ccc(OCC(=O)O)cc2)NC(=O)[C@H](Cc2ccncc2)NC(=O)CSC[C@@H](C(=O)N[C@@H](C)C(N)=O)NC(=O)[C@H]([C@@H](C)O)NC(=O)[C@H](C(C)C)NC(=O)[C@H](CC2CCCCC2)NC(=O)[C@H](CCN)NC1=O` [Compound 1577] yielded an IC50 of 12.1 nM. `Cc1cccc(C[C@@H]2NC(=O)[C@H](CC(=O)O)NC(=O)[C@H](Cc3ccc(OCC(=O)O)cc3)NC(=O)[C@H]([C@@H](C)O)NC(=O)CSC[C@@H](C(N)=O)NC(=O)[C@H]([C@@H](C)O)NC(=O)[C@H](C(C)C)NC(=O)[C@H](CC3CCCCC3)NC(=O)[C@H](CCN)NC(=O)[C@@H](CC(C)C)NC(=O)[C@H](CCCN)NC(=O)[C@H](Cc3ccc(OCC(=O)O)cc3)NC(=O)[C@H](Cc3ccc(-c4ccccc4)cc3)NC(=O)[C@H](Cc3ccc(OCC(=O)O)cc3)NC2=O)c1` [Compound 1800] ({CH2CO}-TY(Carboxymethyl)D[Phe(3-Me)]Y(Carboxymethyl)[Bip]Y(Carboxymethyl)[Orn][dL][Dab][Cha]VTC-NH2; thioether N-14) showed an IC50 of 17.3 nM. `CCCC[C@H]1NC(=O)[C@H](CCCN)NC(=O)[C@H](C(C)C)NC(=O)[C@H](Cc2ccc(-c3ccccc3)cc2)NC(=O)[C@H](C(C)C)NC(=O)[C@H](Cc2c[nH]c3ccccc23)NC(=O)[C@H](CC(=O)O)NC(=O)[C@H](Cc2ccc(O)cc2)NC(=O)[C@H](CC(N)=O)NC(=O)CSC[C@@H](C(=O)N[C@@H](C)C(N)=O)NC(=O)[C@H]([C@@H](C)O)NC(=O)[C@H](C(C)C)NC(=O)[C@H](CC2CCCCC2)NC(=O)[C@H](CCN)NC1=O` [Compound 1696] ({CH2CO}-NYDWV[Bip]V[Orn][dNle][Dab][Cha]VTCA-NH2; thioether N-14) was tested, and the IC50 was 18.7 nM.

Reference: patent US20250163104A1, “MACROCYCLIC IMMUNOMODULATORS” (priority 2021, published 2025)
